Patent US20200339544A1 (JOINT STOCK COMPANY "BIOCAD", priority 2017, published 2020)
Like-named read-outs stand apart in the source and are kept apart here.

Key:
[1] = Chemical stability in simulated gastric fluid (SGF); format: physicochemical; conditions: SGF without enzymes, pH 1,4; 10 μm; 2 hours at 37° C.; substance amount remaining
Description: (§1) 1) Determination of chemical stability in simulated intestinal fluid, simulated gastric fluid and human blood plasma.
(§2) SGF concentrate without enzymes, pH=1,4 (Sigma Ireland, cat #01651) was used as simulated gastric fluid. Initial candidate solution (10 mM in DMSO) was diluted with a SGF working solution to a concentration of 10 μm (test solution). The test solution was incubated in a dry block thermostat for 2 hours at 37° C. SIF concentrate without enzymes, pH=6.5 (Sigma Ireland, cat #55331) was used as simulated intestinal fluid. Initial candidate solution (10 mM in DMSO) was diluted with a SIF working solution to a concentration of 10 μm (test solution). The test solution was incubated in a dry block thermostat for 2 hours at 37° C. HPLC with Agilent 1200 liquid chromatography system (Agilent, USA) was employed to determine peak areas of the compounds in test samples, said peak areas corresponding to the initial test time (prior to incubation) and the final test time (after incubation in a dry block thermostat for 2 hours at 37° C.). We used gradient elution (1 mL/min flow rate). Substance amount in % in a sample after thermostatting was determined.
(§3) The stability of the compounds was estimated.

[2] = Chemical stability in simulated intestinal fluid (SIF); format: physicochemical; conditions: SIF without enzymes, pH 6.5; 10 μm; 2 hours at 37° C.; substance amount remaining
Description: as §1, §2, §3

WT EGFR (Wild-Type EGFR) = target: T1, WT EGFR (Wild-Type EGFR) (Homo sapiens, UniProt P00533); experiment: Inhibition of WT EGFR kinase activity (ADP-Glo); format: biochemical
T1 construct: purchased SignalChem
Procedure, shortened: (§4)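 Recombinant WT or double-mutant EGFR was incubated with a solution of 0.5 mg/mL peptide substrate and 50 μM ATP for 180 minutes at 37° C. Kinase activity was detected by ADP-Glo luminescence. IC50 values came from a four-parameter logistic fit.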

[3] = target: T2, DM EGFR (DoubleMutantEGFR, L828R/T790M) (Homo sapiens, UniProt P00533, L858R/T790M); experiment: Inhibition of DM EGFR kinase activity (ADP-Glo); format: biochemical; conditions: for IC50: inhibition of kinase activity, EGFR DM (L828R/T790M); for SI, IC50(WT)/IC50(DM): selectivity index, kinase EGFR WT vs EGFR DM
T2 construct: purchased SignalChem
Procedure, shortened: as §4

[4] = tested on: A549 (lung adenocarcinoma, WT); experiment: Antiproliferative activity on A549 cells (Alamar Blue); format: cell-based; conditions: Homo sapiens, antiproliferative test
Procedure, shortened: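 Cells seeded at 5*10^3/well in RPMI-1640 with 2% FBS, attached 16-18 h at 37° C, then exposed to compounds (≤1% DMSO) for 72 h. Alamar Blue added for 3-5 h; fluorescence read at 540/590 nm. IC50 from four-parameter logistic fit.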

[5] = tested on: HCC827 (lung adenocarcinoma, SM, exon19delE746-A750); experiment: Antiproliferative activity on HCC827 cells (Alamar Blue); format: cell-based; conditions: Homo sapiens, antiproliferative test
Description: Antiproliferative activity of EGFR inhibitors (Tables 15 and 16) was measured in cell-based bioassay on continuous epithelial cell cultures: A549 (lung adenocarcinoma, ATCC® CRM-CCL-185™—WT), HCC827 (lung adenocarcinoma, ATCC® CRL-2868™—SM (SingleMutantEGFR, exon19delE746-A750)) and H1975 (lung adenocarcinoma, ATCC® CRL-5908™—DM (DoubleMutantEGFR, L828R/T790M)) using cell viability reagent Alamar Blue (ThermoFisher, # DAL1100). Cells were cultured in 10% FBS-supplemented (Gibco, #16140071) RPMI-1640 (PanEco, S330p) for at least 1 passage after thawing, washed with PBS and passaged in 96-well culture plates (3599, Corning) with RPMI-1640 growth medium supplemented with 2% FBS in an amount of 5*10^3 cells/well for A549, 10*10^3 cells/well for HCC827 and 15*10^3 cells/well for H1975 in 100 μL, and incubated at 37° C. in an incubator (Thermo Forma, USA) under 5% of CO2 for 16-18 h for cell attachment.
The test compounds were dissolved in DMSO in the selected range of concentrations and transferred to RPMI-1640 medium (PanEco, S330p) supplemented with 2% FBS. After adding 50 μl of the prepared dilutions to the cells, the incubation mixture contained the final concentrations of the test substances and no more than 1% DMSO. The plates were Incubated at 37° C. for 72 h. After incubation, 15 μl of Alamar Blue vital dye (ThermoFisher, # DAL1100) was added to each well. The plates were shaken on an orbital shaker (Biosan, Latvia) and further incubated for 3-5 h in a CO2 incubator (Thermo Forma, USA). Number of living cells was estimated using a plate spectrophotometer Infinite M200Pro, (Tecan, Switzerland) measuring fluorescent signal at the excitation wavelength (λEx) of 540 nm and emission wavelength (λEm) of 590 nm.
IC50 was calculated using Magellan 7.2 software (Tecan, Switzerland) approximating experimental points by four-parameter logistic model with the optimization by Levenberg-Marquardt.

[6] = tested on: H1975 (lung adenocarcinoma, DM, L828R/T790M); experiment: Antiproliferative activity on H1975 cells (Alamar Blue); format: cell-based; conditions: for IC50: Homo sapiens, NCI-H1975, H1975 cells; for SI IC50(A549)/IC50(DM): selectivity index, A549 vs H1975 cells
Procedure, shortened: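 H1975 cells (15*10^3/well) attached 16-18 h in RPMI-1640 with 2% FBS, then exposed to compounds (≤1% DMSO final) for 72 h at 37 °C. Viability by Alamar Blue fluorescence (Ex 540/Em 590 nm) after 3-5 h; IC50 from four-parameter logistic fit.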

[7] = General cytotoxicity on HepG2 cells; format: cell-based; conditions: human; general cytotoxicity, HepG2 cells, 72 hours, average of several tests
Procedure, shortened: (§5)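 HepG2 cells seeded at 2*10^4 cells per well and compounds added in DMEM with 2% FBS for 72 h at 37 °C. Viability read with Alamar Blue and CC50 derived as for IC50. Therapeutic index taken as HepG2 CC50 over H1975 IC50.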

HepG2 cells = experiment: General cytotoxicity on HepG2 cells; format: cell-based; conditions: therapeutic index, CC50 HepG2 / IC50 H1975
Procedure, shortened: as §5

[8] = Chemical stability in human blood plasma; format: in vitro ADME; conditions: pooled human blood plasma; 10 μm; 4 hours at 37° C.; substance amount remaining
Procedure, shortened: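 Pooled plasma from ten healthy donors was spiked to 10 μM from a 10 mM DMSO stock and held 4 h at 37 °C. After acetonitrile protein precipitation, HPLC peak areas before and after incubation gave the percentage of compound remaining.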

[9] = Enzyme stability in human liver S9 fractions; format: in vitro ADME; conditions: 0.5 mg/mL pooled human liver S9 fractions; 10 μM compound; 37° C.; pH 7.4; read-out: Stability in liver S9 fractions, Clint
Procedure, shortened: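 Compound at 10 μM was incubated at 37 °C with 0.5 mg/mL pooled human liver S9, 2 mM β-NAD and 4 mM MgCl2 in 0.1 M sodium phosphate, pH 7.4, then quenched with acetonitrile and analysed chromatographically. T½ and CLint were derived from the slope of log peak area versus time.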

[10] = average values obtained in several tests, Table 16, read-out: H1975 (DM) IC50
[11] = antiproliferative test, Table 15, read-out: IC50 H1975 (DM)

| SMILES | Stability in SGF, % [1] | Stability in SIF, % [2] | IC50 (WT EGFR (Wild-Type EGFR)) | IC50 [3] | SI, IC50(WT)/IC50(DM) [3] | IC50 [4] | IC50 [5] | IC50 [6, 10] | IC50 [6, 11] | SI IC50(A549)/IC50(DM) [6] | CC50 at 72 h [7] | TI, CC50/IC50 (HepG2 cells) | Stability in blood plasma, % [8] | Intrinsic clearance in human liver S9 fractions at 10 µM [9] |
| --- | --- | --- | --- | --- | --- | --- | --- | --- | --- | --- | --- | --- | --- | --- |
| C=CC(=O)Nc1cc(Nc2cc(C(=O)c3ccc(N4CCOCC4)cc3)ccn2)c(OC)cc1N(C)CCN(C)C.O=C(O)C(F)(F)F [EGFR_3365_5, N-(2-((2-(dimethylamino)ethyl)(methyl)amino)-4-methoxy-5-((4-(4-morpholinobenzoyl)pyridin-2-yl)amino)phenyl)acrylamide 2,2,2-trifluoroacetate] | 100.0% | 89.8% | 464 nM | 22 nM | 21.03 | 7590 nM | 28.6 nM | 57.3 nM | 57.3 nM | 132.56 | 17700 nM | 309 | – | – |
| C=CC(=O)Nc1cc(Nc2nccc(C(=O)c3cccc(F)c3)n2)c(OC)cc1N(C)CCN(C)C [EGFR_3365_11, N-(2-((2-(dimethylamino)ethyl)(methyl)amino)-5-((4-(3-fluorobenzoyl)pyrimidin-2-yl)amino)-4-methoxyphenyl) acrylamide] | 100.0% | 100.0% | 170 nM | 6.44 nM | 26.43 | 12400 nM | 6.2 nM | 351 nM | 351 nM | 35.37 | 15000 nM | 43 | 85.4% | – |
| C=CC(=O)Nc1cc(Nc2nccc(C(=O)c3ccc(Br)cc3)n2)c(OC)cc1N(C)CCN(C)C [EGFR_3365_13, N-(5-((4-(4-bromobenzoyl)pyrimidin-2-yl)amino)-2-((2-(dimethylamino)ethyl) (methyl)amino)-4-methoxyphenyl)acrylamide] | 98.9% | 100.0% | 113 nM | 18.1 nM | 6.22 | 4480 nM | 10.3 nM | 30.8 nM | 30.8 nM | 145.63 | 14100 nM | 460 | 82.4% | – |
| C=CC(=O)Nc1cc(Nc2nccc(C(=O)c3ccccc3[N+](=O)[O-])n2)c(OC)cc1N(C)CCN(C)C [EGFR_3365_36, N-(2-((2-(dimethylamino)ethyl)(methyl)amino)-4-methoxy-5-((4-(2-nitrobenzoyl)pyrimidin-2-yl)amino)phenyl)acrylamide] | 100.0% | 100.0% | 360 nM | 18.9 nM | 19.05 | 73900 nM | – | 184 nM | 184 nM | 402.37 | 36500 nM | 199 | 98.5% | – |
| C=CC(=O)Nc1cc(Nc2cc(C(=O)c3ccc(C)cc3)ccn2)c(OC)cc1N(C)CCN(C)C [EGFR_3365_57, N-(2-((2-(dimethylamino)ethyl)(methyl)amino)-4-methoxy-5-((4-(4-methylbenzoyl)pyridin-2-yl)amino)phenyl)acrylamide] | 100.0% | 96.6% | 49.7 nM | 6.24 nM | 7.96 | 8640 nM | 5.64 nM | 69.4 nM | 69.4 nM | 124 | 22800 nM | 328 | – | – |
| C=CC(=O)Nc1cc(Nc2nccc(C(=O)c3ccc(C)cc3)n2)c(OC)cc1N(C)CCN(C)C [EGFR_3365_64, N-(2-((2-(dimethylamino)ethyl)(methyl)amino)-4-methoxy-5-((4-(4-methylbenzoyl)pyrimidin-2-yl)amino)phenyl)acrylamide] | 100.0% | 100.0% | – | – | – | – | – | – | – | – | – | – | 87.2% | 16.6 µL/min/mg |
| C=CC(=O)Nc1cc(Nc2nccc(C(=O)c3ccc(OC(C)C)cc3OC(C)C)n2)c(OC)cc1N(C)CCN(C)C [EGFR_3365_71, N-(5-((4-(2,4-diisopropoxybenzoyl)pyrimidin-2-yl)amino)-2-((2-(dimethylamino)ethyl)(methyl)amino)-4-methoxyphenyl)acrylamide] | 100.0% | 100.0% | – | – | – | – | – | – | – | – | – | – | 100.0% | – |
| C=CC(=O)Nc1cc(Nc2nccc(C(=O)c3ccc(OCC(C)C)cc3)n2)c(OC)cc1N(C)CCN(C)C [EGFR_3365_78, N-(2-((2-(dimethylamino)ethyl)(methyl)amino)-5-((4-(4-isobutoxybenzoyl)pyrimidin-2-yl)amino)-4-methoxyphenyl) acrylamide] | 91.1% | 91.1% | – | – | – | – | – | – | – | – | – | – | 81.7% | – |
| C=CC(=O)Nc1cc(Nc2nccc(C(=O)c3ccc(-n4ccnc4)cc3)n2)c(OC)cc1N(C)CCN(C)C [EGFR_3365_86, N-(5-((4-(4-(1H-imidazol-1-yl)benzoyl)pyrimidin-2-yl)amino)-2-((2-(dimethylamino)ethyl) (methyl)amino)-4-methoxyphenyl)acrylamide] | 99.7% | 99.4% | – | – | – | – | – | – | – | – | – | – | 100.0% | – |
